Entries after “also recorded” stand apart in the source; their conditions may differ.
Assays:
eNOS = eNOS phosphorylation (Ser1177) and total eNOS by immunoblotting in sinusoidal endothelial cells; format: cell-based, rat
Description: (§1) Cell isolation and culture. Sinusoidal endothelial cells were isolated from male Sprague-Dawley rats (450-500 g) (Harlan, Indianapolis, Ind.). In brief, after in situ perfusion of the liver with 20 mg/100 mg pronase (Roche Molecular Biochemicals, Indianapolis, Ind.), followed by collagenase (Worthington Biochemical, Lakewood, N.J.), dispersed cell suspensions were removed from a layered discontinuous density gradient of 8.2 and 15.6% Accudenz (Accurate Chemical and Scientific, Westbury, N.Y.), further purified by centrifugal elutriation (18 ml/min flow), and were grown in medium containing 20% serum (10% horse/calf). The purity of endothelial cells was documented by their uptake of fluorescently labeled di-l-acetoacetylated low-density lipoprotein as described (21). Only primary sinusoidal endothelial isolates of >95% purity were used for study. Experiments were performed with cells frorrr a minimum three different isolations (for all experiments).
(§2) Immunoblotting, Immunoblotting was performed by using specified primary antibodies, including anti-eNOS antibody (1:1,000; BD Transduction Laboratories, San Jose, Calif.), anti-phospho-eNOS-Ser^1177 (1:1,000; BD Transduction Laboratories or Cell Signaling Technology), anti-phospho-Akt, anti-Akt (Cell Signaling Technology, Beverly, Mass.), and horseradish peroxidase-conjugated secondary antibody. Specific signals were visualized using enhanced chemiluminescence as per the manufacturer's instructions and were scanned and quantitated with standard software.
(§3) Animal model of liver injury and portal hypedension. Liver injury and portal hypertension were induced by performing bile duct ligation in 450- to 500-gram male retired breeder Sprague-Dawley rats as described in Liu and 20- to 25-gram male BALB/c mice. Briefly, bile duct ligation was performed by surgical isolation and ligation of the common bile duct. This model creates a portal-based fibrogenic response and portal hypertension 10-14 days after surgery (Liu). For study of injured sinusoidal endothelial cells, we used the rat model of bile duct ligation (10-14 days postsurgery); for in vivo study (primarily to conserve the use of active compound), we used the mouse model of bile duct ligation (examining portal pressure 4 wk postsurgery). In sham-operated rats or mice, laparotomy without isolation and section of the bile duct was performed. Studies were approved by the local Institutional Animal Care and Use Committees. Portal pressure measurement. Portal hypertension was induced in male BALB/c mice by bile duct ligation as above. Cicletanine (5 mg·kg^−1·day^−1) or vehicle was given by gavage as a single daily dose for 10 days before portal pressure measurement as described in Liue. In brief, mice were anesthetized, and an intravenous catheter (Becton Dickinson Vascular Access, Sandy, Utah) was introduced in the portal vein and secured with a silk tie. A calibrated low-pressure transducer (Digi-Med, Louisville, Ky.) was connected to the portal vein catheter, and portal pressure was recorded continuously using the Digi-Med Integrator 200 System (Digi-bled).

[1] = system: NO production in sinusoidal endothelial cells; experiment: NO measurement (nitrite in conditioned medium of sinusoidal endothelial cells); format: cell-based, rat
Description: as §1, §3
NO measurement. To assess NO production, we analyzed the release of nitrite, the stable breakdown product of NO, using a nitrite/nitrate assay kit (Cayman Chemicals, Ann Arbor, Mich.), following the manufacturer's instructions. Briefly, conditioned medium from sinusoidal endothelial cells with or without cicletanine treatment were loaded on a 96-well plate and mixed with both enzyme cofactor and nitrate reductase. After incubation at room temperature for 3 h, 100 μl Griess reagent mix were added to each well. After 10 more minutes at room temperature, the absorbance of each well was determined on a microplate reader at 540 nm, and the nitrite concentrations were deduced from a standard curve.

protein kinase B (Akt) = experiment: Akt phosphorylation (Ser473) and total Akt by immunoblotting in sinusoidal endothelial cells; format: cell-based, rat
Description: as §1, §2
Animal model of liver injury and portal hypedension. Liver injury and portal hypertension were induced by performing bile duct ligation in 450- to 500-gram male retired breeder Sprague-Dawley rats as described in Liu and 20- to 25-gram male BALB/c mice. Briefly, bile duct ligation was performed by surgical isolation and ligation of the common bile duct. […] A calibrated low-pressure transducer (Digi-Med, Louisville, Ky.) was connected to the portal vein catheter, and portal pressure was recorded continuously using the Digi-Med Integrator 200 System (Digi-bled).

hepatic stellate cells = experiment: Collagen lattice assay (ET-1 stimulated stellate cell contraction, coculture with sinusoidal endothelial cells); format: cell-based, rat; settings: 50 or 100 nM 2 h, then ET-1 10 nM; coculture on collagen lattices
Description: For coculture experiments, freshly isolated stellate cells and freshly isolated sinusoidal endothelial cells were isolated separately and mixed together on collagen-coated plates and cultured for 5 days. Sinusoidal endothelial cells were plated at a density of 200,000 cells/cm2, and stellate cells were at a density of 65,000 cells/cm2.
Collagen lattice assay. Contraction of hepatic stellate cells was performed as previously described with minor modifications (25). Briefly, individual wells of a 24-well culture dish were incubated with PBS containing 1% BSA (500 μl/well) for 1 h at 37° C. and then washed two times with PBS and allowed to air dry. Collagen gels were prepared by mixing 60% type I tail collagen (Upstate Laboratories), 10% 10×MEM (GIBCO), 10% 0.2 HEPES, and 20% DMEM (GIBCO) to make a final concentration of collagen of 2.4 mg/ml. The solution was added to the culture wells and incubated for 1 h at 37° C., and hepatic stellate cells and sinusoidal endothelial cells were isolated separately from normal rat livers and cocultured (each at a density of 100,000 cells/lattice) on collagen lattices for 5 days. Cells were changed to serum-free medium overnight, then exposed to cicletanine, and then stimulated with endothelin-1 (ET-1, 10 nM). Collagen lattices were released from their substrata, and gel contraction was measured from 0 to 30 min.

[2] = system: bile duct-ligated (BDL) mice; experiment: Portal pressure measurement in bile duct-ligated and sham-operated mice; format: in vivo, BALB/c mice; settings: 5 mg·kg−1·day−1 by gavage for 10 days
Description: as §3, with “In brief, mice were anesthetized, and an intravenous catheter (Becton Dickinson Vascular Access, Sandy, Utah) was introduced in the portal vein and secured with a silk tie.” left out

[3] = cicletanine 100 nM, normal sinusoidal endothelial cells
[4] = sinusoidal endothelial cells injured by bile duct ligation, 2 h

With Cc1ncc2c(c1O)COC2c1ccc(Cl)cc1 (stereo not shown) [cicletanine, 3-(4-chlorophenyl)-1,3-dihydro-7-hydroxy-6-methylfuro-(3,4-c) pyridine] the “phosphorylation of eNOS, dose dependence” value (eNOS; 50 or 100 nM, 2 h, normal sinusoidal endothelial cells) was “increased in a dose-dependent manner”, the “time after exposure of greatest eNOS phosphorylation” value (eNOS; cicletanine 100 nM, 0-4 h) was 1 h and the “eNOS phosphorylation at Ser1177” value (eNOS; [3]) was “stimulated; also recorded: increased”. The “total eNOS expression” value (eNOS; [3]) was “unchanged”, the eNOS phosphorylation (eNOS; [4]) was “restored eNOS phosphorylation to above basal levels” and the “dose dependence of effect on nitrite production” value ([1]; 50 or 100 nM, 2 h) was “dose dependent”. The “nitrite levels in conditioned medium” value ([1]; 2 h exposure, normal sinusoidal endothelial cells) was “significantly increased”, the nitrite production ([1]; cells transduced with adenovirus 24 h, then cicletanine 100 nM 2 h) was “stimulated” and the “time at which nitrite levels started to increase” value ([1]; cicletanine 100 nM, 0-4 h) was 30 min. The nitrite production [1, 4] was “increase”, the “Akt phosphorylation at Ser473” value (protein kinase B (Akt); 50 or 100 nM, normal sinusoidal endothelial cells) was “increased” and the “total Akt expression” value (protein kinase B (Akt); normal sinusoidal endothelial cells) was “without a change”. The Akt phosphorylation (protein kinase B (Akt); [4]) was “restored Akt phosphorylation to above normal levels”, the stellate cell contraction (hepatic stellate cells) was “inhibited stellate cell contraction in a dose-dependent manner” and the portal pressure ([2]; BDL mice) was “significantly reduced”. For the same molecule, the portal pressure ([2]; sham-operated mice) was “Slight and nonsignificant decreases”.

Source: US20170056380A1, “Systems, Methods, Techniques, and Compounds in Research and Treatment of Portal Hypertension and other Conditions” (priority 2014, published 2017)
